In patent publication US8952024B2, “Herbicidal pyrimidone derivatives” (E I du Pont de Nemours and Company, priority 2009, dated 2015):

Assays:
Assay type in all cases: in vivo
[1] = tested on: wheat (Triticum aestivum); test: Test A pre-/postemergence plant response
Procedure, shortened: (§1)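 Each species was treated preemergence via directed soil spray and postemergence at the one- to two-leaf stage, with compounds formulated in a non-phytotoxic solvent plus surfactant. Visual injury relative to untreated controls was rated after about ten days on a 0–100 scale.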

[2] = tested on: velvetleaf (Abutilon theophrasti); test: Test A pre-/postemergence plant response
Procedure, shortened: as §1

[3] = tested on: large crabgrass (Digitaria sanguinalis); test: Test A pre-/postemergence plant response
Procedure, shortened: as §1

[4] = tested on: morningglory (Ipomoea spp.); test: Test A pre-/postemergence plant response
Procedure, shortened: as §1

[5] = tested on: giant foxtail (Setaria faberii); test: Test B pre-/postemergence plant response; settings: for Foxtail, Giant plant response rating: 0 to 100 scale
Procedure, shortened: (§2)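 Plants treated either at seeding (loam/sand soil) or postemergence at 2 to 18 cm height, using a surfactant-containing non-phytotoxic solvent formulation. Evaluation was visual after 13 to 15 days, 0 to 100 scale relative to controls.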

[6] = tested on: wheat (Triticum aestivum); test: Test B pre-/postemergence plant response; settings: for Wheat plant response rating: 0 to 100 scale
Procedure, shortened: as §2

[7] = tested on: green foxtail (Setaria viridis); test: Test B pre-/postemergence plant response; settings: for Foxtail, Green plant response rating: 0 to 100 scale
Procedure, shortened: as §2

[8] = tested on: goosegrass (Eleusine indica); test: Test B pre-/postemergence plant response; settings: for Goosegrass plant response rating: 0 to 100 scale
Procedure, shortened: as §2

[9] = tested on: pigweed (Amaranthus retroflexus); test: Test B pre-/postemergence plant response; settings: for Pigweed plant response rating: 0 to 100 scale
Procedure, shortened: as §2

kochia (Kochia scoparia) = test: Test B pre-/postemergence plant response; settings: Postemergence
Procedure, shortened: as §2

[10] = tested on: downy bromegrass (Bromus tectorum); test: Test B pre-/postemergence plant response; settings: for Bromegrass, Downy plant response rating: 0 to 100 scale
Procedure, shortened: as §2

[11] = tested on: morningglory (Ipomoea coccinea); test: Test B pre-/postemergence plant response; settings: for Morningglory plant response rating: 0 to 100 scale
Procedure, shortened: as §2

[12] = tested on: cocklebur (Xanthium strumarium); test: Test B pre-/postemergence plant response; settings: for Cocklebur plant response rating: 0 to 100 scale
Procedure, shortened: as §2

[13] = Postemergence, 1000 g ai/ha, 0 to 100 scale, 0 = no effect, 100 = complete control, approx. ten days
[14] = Preemergence, 1000 g ai/ha, visual injury, 0 to 100 scale (0 no effect, 100 complete control), approx. ten days
[15] = Postemergence, 31 g ai/ha, 0 to 100 scale (0 no effect, 100 complete control)
[16] = Postemergence, 125 g ai/ha, scale 0 to 100 (0 no effect, 100 complete control)
[17] = Postemergence, 250 g ai/ha, scale 0 to 100 (0 no effect, 100 complete control), 13 to 15 days
[18] = Postemergence, 62 g ai/ha, scale 0 to 100 (0 no effect, 100 complete control)
[19] = Preemergence, 31 g ai/ha, scale 0 to 100 (0 no effect, 100 complete control)
[20] = Preemergence, 62 g ai/ha, scale 0 to 100, 0 no effect, 100 complete control
[21] = Preemergence, 125 g ai/ha, scale 0 to 100, 0 no effect, 100 complete control
[22] = 31 g ai/ha, 0 to 100 scale (0 no effect, 100 complete control)
[23] = 125 g ai/ha, scale 0 to 100 (0 no effect, 100 complete control)
[24] = 250 g ai/ha, scale 0 to 100 (0 no effect, 100 complete control), 13 to 15 days
[25] = 62 g ai/ha, scale 0 to 100 (0 no effect, 100 complete control)
[26] = Postemergence, 125 g ai/ha, 0 to 100 scale where 0 is no effect and 100 is complete control
[27] = Postemergence, 500 g ai/ha, visual injury, 0 to 100 scale (0 no effect, 100 complete control), approx. ten days
[28] = Preemergence, 125 g ai/ha, 0 to 100 scale, 0 = no effect, 100 = complete control
[29] = Preemergence, 500 g ai/ha, 0 to 100 scale, 0 = no effect, 100 = complete control

CCCc1ncc(C(=O)C2=C(O)CCCC2=O)c(=O)n1-c1ccccc1 [Compound 217]
Plant response rating, Wheat [1, 13]: 40
Plant response rating, Wheat [1, 14]: 30
Plant response rating, Velvetleaf [2, 13]: 100
Plant response rating, Velvetleaf [2, 14]: 100
Plant response rating, Crabgrass, Large [3, 13]: 100
Plant response rating, Crabgrass, Large [3, 14]: 100
Plant response rating, Morningglory [4, 13]: 100
Plant response rating, Morningglory [4, 14]: 70
Plant response rating, Foxtail, Giant [5, 15]: 70
Plant response rating, Foxtail, Giant [5, 16]: 85
Plant response rating, Foxtail, Giant [5, 17]: 90
Plant response rating, Foxtail, Giant [5, 18]: 75
Plant response rating, Foxtail, Giant [5, 19]: 5
Plant response rating, Foxtail, Giant [5, 20]: 40
Plant response rating, Foxtail, Giant [5, 21]: 75
Foxtail, Giant plant response rating ([5]; Preemergence, 250 g ai/ha): 85
Plant response rating, Wheat [6, 15]: 30
Plant response rating, Wheat [6, 17]: 50
Plant response rating, Wheat [6, 18]: 45
Plant response rating, Wheat [6, 19]: 0
Plant response rating, Wheat [6, 20]: 0
Plant response rating, Wheat [6, 21]: 0
Wheat plant response rating ([6]; Preemergence, 250 g ai/ha): 0
Plant response rating, Foxtail, Green [7, 15]: 55
Plant response rating, Foxtail, Green [7, 16]: 85
Plant response rating, Foxtail, Green [7, 17]: 90
Plant response rating, Foxtail, Green [7, 18]: 60
Plant response rating, Foxtail, Green [7, 19]: 0
Plant response rating, Foxtail, Green [7, 20]: 0
Plant response rating, Foxtail, Green [7, 21]: 0
Foxtail, Green plant response rating ([7]; Preemergence, 250 g ai/ha): 90
Plant response rating, Goosegrass [8, 15]: 80
Plant response rating, Goosegrass [8, 16]: 85
Plant response rating, Goosegrass [8, 17]: 95
Plant response rating, Goosegrass [8, 18]: 80
Plant response rating, Goosegrass [8, 19]: 95
Plant response rating, Goosegrass [8, 20]: 98
Plant response rating, Goosegrass [8, 21]: 100
Goosegrass plant response rating ([8]; Preemergence, 250 g ai/ha): 100
Plant response rating, Pigweed [9, 15]: 85
Plant response rating, Pigweed [9, 17]: 100
Plant response rating, Pigweed [9, 18]: 100
Plant response rating, Pigweed [9, 19]: 95
Plant response rating, Pigweed [9, 20]: 100
Plant response rating, Pigweed [9, 21]: 100
Pigweed plant response rating ([9]; Preemergence, 250 g ai/ha): 100
Plant response rating, Kochia (kochia (Kochia scoparia); [22]): 75
Plant response rating, Kochia (kochia (Kochia scoparia); [23]): 100
Plant response rating, Kochia (kochia (Kochia scoparia); [24]): 100
Plant response rating, Kochia (kochia (Kochia scoparia); [25]): 98
Plant response rating, Bromegrass, Downy [10, 15]: 10
Plant response rating, Bromegrass, Downy [10, 16]: 40
Plant response rating, Bromegrass, Downy [10, 17]: 65
Plant response rating, Bromegrass, Downy [10, 18]: 15
Plant response rating, Bromegrass, Downy [10, 19]: 0
Plant response rating, Bromegrass, Downy [10, 20]: 0
Plant response rating, Bromegrass, Downy [10, 21]: 0
Bromegrass, Downy plant response rating ([10]; Preemergence, 250 g ai/ha): 0
Plant response rating, Morningglory [11, 15]: 70
Plant response rating, Morningglory [11, 16]: 80
Plant response rating, Morningglory [11, 17]: 80
Plant response rating, Morningglory [11, 18]: 75
Plant response rating, Morningglory [11, 19]: 0
Plant response rating, Morningglory [11, 20]: 0
Plant response rating, Morningglory [11, 21]: 0
Morningglory plant response rating ([11]; Preemergence, 250 g ai/ha): 0
Plant response rating, Cocklebur [12, 15]: 80
Plant response rating, Cocklebur [12, 16]: 98
Plant response rating, Cocklebur [12, 17]: 100
Plant response rating, Cocklebur [12, 18]: 98
Plant response rating, Cocklebur [12, 21]: 85
Cocklebur plant response rating ([12]; Preemergence, 250 g ai/ha): 85

CCc1cccc(-n2c(-c3ccccc3)ncc(C(=O)C3=C(O)CCCC3=O)c2=O)c1 [Compound 220]
Plant response rating, Wheat [1, 26]: 0
Wheat plant response rating [1, 27]: 20
Plant response rating, Wheat [1, 28]: 0
Plant response rating, Wheat [1, 29]: 0
Plant response rating, Velvetleaf [2, 26]: 100
Velvetleaf plant response rating [2, 27]: 100
Plant response rating, Velvetleaf [2, 28]: 40
Plant response rating, Velvetleaf [2, 29]: 100
Plant response rating, Crabgrass, Large [3, 26]: 50
Crabgrass, Large plant response rating [3, 27]: 90
Plant response rating, Crabgrass, Large [3, 28]: 20
Plant response rating, Crabgrass, Large [3, 29]: 90
Plant response rating, Morningglory [4, 26]: 100
Morningglory plant response rating [4, 27]: 100
Plant response rating, Morningglory [4, 28]: 0
Plant response rating, Morningglory [4, 29]: 70
Plant response rating, Foxtail, Giant [5, 15]: 30
Plant response rating, Foxtail, Giant [5, 16]: 55
Plant response rating, Foxtail, Giant [5, 17]: 95
Plant response rating, Foxtail, Giant [5, 18]: 50
Plant response rating, Foxtail, Giant [5, 19]: 0
Plant response rating, Foxtail, Giant [5, 20]: 0
Plant response rating, Foxtail, Giant [5, 21]: 0
Foxtail, Giant plant response rating ([5]; Preemergence, 250 g ai/ha): 75
Plant response rating, Wheat [6, 15]: 0
Plant response rating, Wheat [6, 17]: 15
Plant response rating, Wheat [6, 18]: 0
Plant response rating, Wheat [6, 19]: 0
Plant response rating, Wheat [6, 20]: 0
Plant response rating, Wheat [6, 21]: 0
Wheat plant response rating ([6]; Preemergence, 250 g ai/ha): 5
Plant response rating, Foxtail, Green [7, 15]: 60
Plant response rating, Foxtail, Green [7, 16]: 80
Plant response rating, Foxtail, Green [7, 17]: 90
Plant response rating, Foxtail, Green [7, 18]: 65
Plant response rating, Foxtail, Green [7, 19]: 80
Plant response rating, Foxtail, Green [7, 20]: 90
Foxtail, Green plant response rating ([7]; Preemergence, 250 g ai/ha): 100
Plant response rating, Goosegrass [8, 15]: 80
Plant response rating, Goosegrass [8, 16]: 85
Plant response rating, Goosegrass [8, 17]: 90
Plant response rating, Goosegrass [8, 18]: 85
Plant response rating, Goosegrass [8, 19]: 65
Plant response rating, Goosegrass [8, 20]: 95
Plant response rating, Goosegrass [8, 21]: 98
Goosegrass plant response rating ([8]; Preemergence, 250 g ai/ha): 100
Plant response rating, Pigweed [9, 15]: 95
Plant response rating, Pigweed [9, 17]: 100
Plant response rating, Pigweed [9, 18]: 100
Plant response rating, Pigweed [9, 19]: 100
Plant response rating, Pigweed [9, 20]: 100
Plant response rating, Pigweed [9, 21]: 100
Pigweed plant response rating ([9]; Preemergence, 250 g ai/ha): 100
Plant response rating, Kochia (kochia (Kochia scoparia); [22]): 45
Plant response rating, Kochia (kochia (Kochia scoparia); [23]): 75
Plant response rating, Kochia (kochia (Kochia scoparia); [24]): 100
Plant response rating, Kochia (kochia (Kochia scoparia); [25]): 65
Plant response rating, Bromegrass, Downy [10, 15]: 10
Plant response rating, Bromegrass, Downy [10, 16]: 15
Plant response rating, Bromegrass, Downy [10, 17]: 30
Plant response rating, Bromegrass, Downy [10, 18]: 10
Plant response rating, Bromegrass, Downy [10, 19]: 0
Plant response rating, Bromegrass, Downy [10, 20]: 0
Plant response rating, Bromegrass, Downy [10, 21]: 0
Bromegrass, Downy plant response rating ([10]; Preemergence, 250 g ai/ha): 5
Plant response rating, Morningglory [11, 15]: 65
Plant response rating, Morningglory [11, 16]: 98
Plant response rating, Morningglory [11, 17]: 100
Plant response rating, Morningglory [11, 18]: 65
Plant response rating, Morningglory [11, 19]: 0
Plant response rating, Morningglory [11, 20]: 0
Plant response rating, Morningglory [11, 21]: 0
Morningglory plant response rating ([11]; Preemergence, 250 g ai/ha): 90
Plant response rating, Cocklebur [12, 19]: 0
Plant response rating, Cocklebur [12, 20]: 0
Cocklebur plant response rating ([12]; Preemergence, 250 g ai/ha): 0
